From patent publication US10588919B2, “Materials and methods for the treatment of vascular disease” (THE UNIVERSITY COURT OF THE UNIVERSITY OF EDINBURGH, priority 2015, dated 2020)

Legend:
Format in all cases: cell-based, human
[1] = system: LncRNA 2 (SMILR) expression; assay: MEKK1 and p38 inhibitor studies: LncRNA 2 (SMILR) expression by qRT-PCR in IL1α/PDGF-stimulated HSVSMC; details: 24 h; for LncRNA 2 expression in the presence of IL1 and PDGF: HSVSMC, 60 minute pre-treatment, 10, 15 and 20 μM AZD6244, 5, 10 and 20 uM SB 203580; for induction of SMILR expression in response to PDGF and IL1α: VSMC, 60 min pre-treatment, AZD6244 5, 10 or 15 μM, SB203580
Protocol: For gene expression analysis, cDNA for mRNA analysis was obtained from total RNA using the Multiscribe Reverse Transcriptase (Life technologies, UK). qRT-PCR was performed using Power SYBR green (life technologies, UK) with custom PCR primers (Eurofins, MWG, Ebersberg, Germany) the specificity of these primers was confirmed by performing a melting curve and running their PCR produce on a gel (Table 1-primer sequences). Ubiquitin C (UBC) was selected as housekeeping gene due to its stability across all groups studied. Fold-changes were calculated using the 2^-ΔΔCt method (Livak and Schmittgen 2001-http://www.ncbi.nlm.nih.gov/pubmed/11846609; analysis of relative gene expression data using real-time quantitative PCR and the 2(-Delta Delta C(T)) method. Methods 2001;25;402-8). For inhibitor studies, […] were plated at 1×10^5 cells in 6 well plates and quiesced for 48 h. […] Cells were then stimulated with either 0.2% media or a combination of IL1α and PDGF for 24 hours for RNA quantification or western blot analysis.

SMILR (LncRNA 2) = assay: dsiRNA-mediated knockdown of SMILR in HSVSMC, qRT-PCR
Protocol: (§1) For gene expression analysis, cDNA for mRNA analysis was obtained from total RNA using the Multiscribe Reverse Transcriptase (Life technologies, UK). qRT-PCR was performed using Power SYBR green (life technologies, UK) with custom PCR primers (Eurofins, MWG, Ebersberg, Germany) the specificity of these primers was confirmed by performing a melting curve and running their PCR produce on a gel (Table 1—primer sequences). Ubiquitin C (UBC) was selected as housekeeping gene due to its stability across all groups studied. Fold-changes were calculated using the 2^−ΔΔCt method (Livak and Schmittgen 2001—http://www.ncbi.nlm.nih.gov/pubmed/11846609; analysis of relative gene expression data using real-time quantitative PCR and the 2(-Delta Delta C(T)) method. Methods 2001;25;402-8). […] Following the 48 stimulation cells were RNA extracted as described earlier or fixed in 70% ethanol for EdU FACs analysis. EdU incorporation was visualized using Click-iT Alexa Fluor 594 according to the manufacturers protocol (Invitrogen).

HSVSMC proliferation = assay: EdU incorporation (proliferation) of HSVSMC stimulated with IL1α/PDGF
[2] = system: interferon pathway (OAS1, IRF7); assay: qRT-PCR of interferon response genes OAS1 and IRF7 after dsiRNA; details: dsiRNA off target effects
Protocol: For gene expression analysis, cDNA for mRNA analysis was obtained from total RNA using the Multiscribe Reverse Transcriptase (Life technologies, UK). qRT-PCR was performed using Power SYBR green (life technologies, UK) with custom PCR primers (Eurofins, MWG, Ebersberg, Germany) the specificity of these primers was confirmed by performing a melting curve and running their PCR produce on a gel (Table 1—primer sequences). Ubiquitin C (UBC) was selected as housekeeping gene due to its stability across all groups studied. Fold-changes were calculated using the 2^−ΔΔCt method (Livak and Schmittgen 2001—http://www.ncbi.nlm.nih.gov/pubmed/11846609; analysis of relative gene expression data using real-time quantitative PCR and the 2(-Delta Delta C(T)) method. Methods 2001;25;402-8).

HAS2 = HAS2 expression by qRT-PCR in HSVSMC; details: SMILR knockdown
Protocol: as §1

HAS2-AS1 = HAS2-AS1 expression by qRT-PCR in HSVSMC; details: SMILR knockdown
Protocol: as §1

ZHX2 = ZHX2 expression by qRT-PCR in HSVSMC; details: SMILR knockdown
Protocol: as §1

HAS1 = HAS1 expression by qRT-PCR in HSVSMC; details: SMILR knockdown
Protocol: as §1

HAS3 = HAS3 expression by qRT-PCR in HSVSMC; details: SMILR knockdown
Protocol: as §1

SMILR = assay: RNA-FISH of SMILR transcripts in HSVSMC
Description: Custom RNA-FISH tiled probe sets were generated to all exons of […] FISH utilises “branch tree” technology. Briefly, a target specific probe set, containing 40 oligo probes, hybridises to the target mRNA as 20 oligo pairs. Each oligo pair forms a required platform for assembly of the signal amplification structure (tree) through a series of sequential hybridisation steps. Each fully assembled structure, covers a space of 40-50 nt of the target RNA, and has the capacity for 400-fold signal amplification. Therefore, a typical RNA probe set (containing 20 oligo pairs) has the capacity to generate 8,000-fold signal amplification. Due to this technology the company confirms single-molecule RNA sensitivity, thus each fluorescent signal corresponds to an individual lncRNA molecule. Control SNORD3 and UBC were used as housekeepers to determine spatial location of LncRNA2 (Panomics, Affymetrix). RNA-FISH was performed according to manufacturer's instructions (ViewRNATM cell FISH) with minor modifications for both cell and tissue experiments. For cellular analysis […] were grown on 16mm coverslips to 80% confluency, washed in PBS and fixed in 4% paraformaldehyde supplemented with 1% glacial acetic acid. Following detergent QS permeablisation and 1:6000 protease digest coverslips were incubated with a combination of UBC and LncRNA 2 probe sets or UBC. […]

Molecule | LncRNA 2 expression in the presence of IL1 and PDGF [1] | induction of SMILR expression in response to PDGF and IL1α [1] | decrease in SMILR expression compared to dsiControl (SMILR (LncRNA 2); 25 nM dsiRNA, IL1α/PDGF 48 h) | LncRNA 2 (SMILR) expression after dsiRNA transfection (SMILR (LncRNA 2); IL1/PDGF, qRT-PCR) | VSMC proliferation reduced (EdU incorporation) (HSVSMC proliferation; SMILR knock down with dsiRNA, IL1/PDGF 48 h, vs Si Control) | SMC proliferation following stimulation with IL1/PDGF (EdU incorporation) (HSVSMC proliferation; dsiRNA mediated knockdown of LncRNA 2) | effect on the interferon pathway (response genes OAS1 and IRF7) [2] | HAS2 mRNA levels (HAS2) | HAS2 mRNA levels (HAS2; listed as SMILR siRNA) | HAS2-AS1 lncRNA expression (HAS2-AS1) | ZHX2 gene expression (ZHX2) | HAS1 expression (HAS1) | HAS3 expression (HAS3) | SMILR transcripts (RNA-FISH) (SMILR)
C[S+]([O-])c1ccc(-c2nc(-c3ccncc3)c(-c3ccc(F)cc3)[nH]2)cc1 (stereo not shown) [SB 203580] | completely inhibited | dose-dependent reduction |  |  |  |  |  |  |  |  |  |  |  | 
Cn1cnc2c(F)c(Nc3ccc(Br)cc3Cl)c(C(=O)NOCCO)cc21 [AZD6244] | completely inhibited | prevented the induction |  |  |  |  |  |  |  |  |  |  |  | 
DsiRNA SMILR: Double stranded dicer substrate siRNA targeting LncRNA 2 (SMILR); probably sense SEQ ID NO: 1, antisense SEQ ID NO: 2 (sense CCAUAAUUUACAUGGAUGUU; antisense UUCCAAACAUCCAUGUAAAUUAUGGAA; listed as RNA, chemistry not fully specified) |  |  | 75±24% | significant decrease | 56±15% | inhibited | No effect | significantly inhibits | significantly altered | no change | no change | no effect | no effect | decrease
